Patent publication US6545048B1, “Compositions and methods of treating cancer using compositions comprising an inhibitor or endothelin receptor activity” (California Institute of Technology, priority 1999, dated 2003)
“Also recorded” adds a separate entry of the source. Where a SMILES comes first, the peptide text is derived from it. [ ]: non-standard residue; d: D form.

Experiments:
[1] = test system: human melanoma cell lines; experiment: MTS cell viability/cell number assay, melanoma lines; type: cell-based; details: for number of viable cells: 4 days
Method: Cells were cultured in the presence of BQ788 or vehicle or with no treatment for 4 days. Three wells of each condition were subjected to the MTS assay. The means were calculated and plotted as percent of the vehicle-treated value, +S.E.M. P values were calculated using […] for absolute values. The experiment was repeated 3 times, each yielding similar results.
(§1) Cell culture. Human melanoma cell lines were obtained from the American Tissue Culture Collection (ATCC) and were cultured with Dulbecco's Eagle medium (ATCC), containing 10% fetal calf serum, glutamine (Gibco) and antibiotics (concentration; Pen-Strep mix, Gibco) in a humidified incubator with 5% CO2 at 37° C. BQ788 and BQ123 (Calbiochem) were dissolved in 2% polyoxythylene (60) hydrogenated castor oil (HCO60; Nikko Chemicals). Cells were cultured in 96 well ELISA plates. For the cell viability/cell number assay, the day after plating, inhibitor or vehicle was added ard the cultures incubated for 4 days. The MTS assay was used to quantify cells by measuring OD at […] (Promega).

[2] = test system: human melanoma cell lines; experiment: Morphology of cultured melanoma cells treated with antagonist (bright field); type: cell-based
Method: (§2) Cells were cultured for 4 days with 100 μM BQ788 (FIGS. A, C, and E) or with vehicle (FIGS. B, D, and F). The cell lines were melanoma line SK-MEL 28 (FIGS. A and B), melanoma line SK-MEL 5 (FIGS. C and D), and kidney 293 (FIGS. E and F). […] Pictures were taken with bright field optics at 40×magnification.
as §1
(§3) To test the hypothesis that ETRB function plays a role in melanoma cell growth and differentiation, we cultured 7 human melanoma cell lines and one human kidney cell line with the selective ETRB antagonist, BQ788.

A375 melanoma tumor [3] = experiment: Histology of tumors from the i.p. experiment (TUNEL, anti-CD31); type: in vivo, nude mice
Method: FIGS. 8A-8D show representative sections from 4 tumors from BQ788 injected mice and FIGS. 8E-8G show tumors from vehicle-injected mice. […] The magnification is 20×.
Immunohistochemistry. Tumors were frozen on dry ice, cut on a cryostat into 20 μm sections, and stored at −80° C. Sections were rinsed in calcium and magnesium-free phosphate buffered saline (PBS), fixed in 4% paraformaldehyde for 1 hour at room temperature, blocked with 2% rabbit serum and incubated with primary antibody overnight at 4° C. After washing in PBS sections were incubated with a biotinylated secondary antibody, and staining developed using the Elite ABC kit (Vector Laboratories, CA). The primary antibodies used in this study were monoclonal rat anti-mouse CD31 (platelet endothelial cell adhesion molecule) and rat anti-mouse CD45 (leukocyte common antigen found on all cells of hematopoietic origin, except erythrocytes) (Pharmagen, San Diego, Calif.). A cell death kit was used for TUNEL staining (Boehringer Mannheim).
Several of the tumors from the i.p. injection experiment were taken for histological examination on day 10. Sections were stained with anti-CD31 antibody for angiogenesis, and with the TUNEL method for apoptosis. […] These effects in culture appear mediated by the action of the drug on ETRB itself, as BQ788 is ineffective on A375 cells in the presence of the ETRB agonist S6c. A further indication of the specificity of the action of BQ788 is its very different effect on kidney 293 cells.

A375 melanoma tumor [4] = experiment: Systemic (i.p.) administration, A375 melanoma grafts in nude mice; type: in vivo
Method: The experiment was similar to that described in FIG. 6, except that the drug and vehicle were injected daily i.p. In FIG. 7A, the data for the 6 BQ788-treated mice were pooled.
We next asked if systemic administration of BQ788 inhibits tumor growth. In these experiments, tumor induction and the starting point of the treatments were as for the intra-tumor approach. At that point, mice were injected i.p. with 100 μl of BQ788 solution (0.6 mg BQ788 in 30% water and 70% saline, at a final HCO60 concentration of 0.6%) once or twice a day for a period of 9 days. Control mice received the same injections but without BQ788. In the first experiment, mice were injected once a day, and in the second experiment the mice were injected in the morning and then again in the early evening. […] However, there was some heterogeneity in the response of the mice to BQ788.

A375 melanoma tumor [5] = experiment: Intra-tumor injection, A375 melanoma grafts in nude mice; type: in vivo, nude mice (nu/nu, BALB/c background)
Method: Nude mice (nu/nu, BALB/c background) were implanted with grafts of A375 cells subcutaneously on the flank. After the tumors had reached approximately 4 mm in diameter they were injected daily with BQ788 for 9 days. Perpendicular tumor diameters were measured daily to estimate tumor volume. Controls were injected on the same schedule with vehicle. Data from 3 experiments utilizing 10 BQ788-treated mice and 8-vehicle treated mice were pooled. P values were calculated using t test. Similar conclusions come from measuring tumor weights.
For the in vivo experiments we chose the A375 melanoma cell line. Although this line is not the most sensitive to BQ788 treatment in culture, it is known to grow readily in nude mice. First, dissociated cells were injected as a suspension into the flank of nude mice. When tumors developed, one mouse was sacrificed, the tumor removed and cut into pieces of approximately 3 mm in diameter and implanted under the skin of a new series of nude mice. When the tumor reaches 4 mm in diameter (which takes approximately 12 days, but can vary), 25 μl of a solution containing 20, μg/μl of BQ788 dissolved in 2% polyoxythylene (60) hydrogenated castor oil (HCO60) (Ishikawa, et al., Proc. Natl. Acad. Sci. USA, 91:4892-6 (1994)) was injected into the center of the tumor daily for 9 days. Tumors in control mice were injected in the same way with 25 μl of 2% HCO60. Before each injection the tumor dimensions were measured. At the outset, the mean tumor volume was 26 mm^3 in both control and BQ788-treated mice. […] Similar conclusions come from comparison of tumor weights (means of 446 mg versus 93 mg; p<0.005).

[6] = literature reports; cited from earlier work
kidney 293 cells [7] = experiment: MTS cell viability/cell number assay, kidney cells; type: cell-based, human; details: high concentrations, 4 days
kidney 293 cells [8] = experiment: Morphology of cultured kidney 293 cells treated with antagonist (bright field); type: cell-based, human; details: 100 μM, 4 days
Method: as §2, §1, §3

A375 cells = experiment: MTS assay, S6c alone or in combination with BQ788; type: cell-based, human
Method: In experiments similar to those illustrated in FIG. 2, S6c was tested for its effects on cultured A375 cells, alone or in combination with BQ788, at various concentrations.
as §1
Thus, the ability of BQ788 to lower melanoma cell number is likely to be through its action on ETRB and not as a side effect on another aspect of melanoma cell physiology.

[9] = A375, SK-MEL 28 and RPMI 7951 cells

For `CC(C)C[C@@H]1NC(=O)[C@@H](C(C)C)NC(=O)[C@@H]2CCCN2C(=O)[C@@H](CC(=O)O)NC(=O)[C@@H](Cc2c[nH]c3ccccc23)NC1=O` [BQ123] (cyclo(L[dW][dD]P[dV])), the cell number ([1]; A375 and SK-MEL 28 melanoma lines) was “slightly increases cell number” and the “number of viable cells” value ([1]; any of the cell lines, even at high concentrations) was “does not reduce the number of viable cells; also recorded: did not inhibit melanoma cell growth in culture”.

For `CCCC[C@@H](NC(=O)[C@@H](Cc1cn(C(=O)OC)c2ccccc12)NC(=O)[C@H](CC(C)(C)C)NC(=O)N1[C@H](C)CCC[C@@H]1C)C(=O)O` [BQ788, N-cis-2,6-dimethylpiperidinocarbonyl-L-γ-methylleucyl-D-1-methoxycarbonyltrptophanyl-D-norleucine], the morphology [2, 9] was “vacuoles in their cytoplasm”, the morphology ([2]; SK-MEL 3 cells) was “increased surface area (dendritic morphology)” and the phenotype / dendricity ([2]; SK-MEL 5 cells, 100 μM, 4 days) was “dendritic phenotype; also recorded: increased dendricity”. For the same compound, the morphology ([2]; SK-MEL 24 and SK-MEL 31 cells) was “increased pigmentation”, the morphology ([2]; SK-MEL 28 and SK-MEL 5, 100 μM, 4 days (FIG. 1 legend)) was “different shape and accumulation of black pigment” and the morphological changes ([2]; SK-MEL 28 cells, 100 μM, 4 days) was “develop large cytoplasmic vacuoles and enhanced pigmentation”. The surface area ([2]; all the melanoma lines) was “increased surface area”, the pigmentation ([2]; most melanoma lines (except for SK-MEL 3)) was “major increases in pigmentation” and the “TUNEL labeling (apoptosis)” value (A375 melanoma tumor [3]; day 10) was “TUNEL-positive cells are comparatively greater”. The “angiogenesis (anti-CD31 staining)” value (A375 melanoma tumor [3]; day 10 (data not shown)) was “no evidence that BQ788 blocks angiogenesis”, the “TUNEL labeling (apoptosis)” value (A375 melanoma tumor [3]; day 10, listed as BQ-788) was “enhanced TUNEL labeling” and the tumor growth (A375 melanoma tumor [4]; i.p. once or twice a day for 9 days, pooled mice) was “inhibits melanoma tumor growth; also recorded: effective inhibition of tumor growth”. The “tumor growth, first subgroup of mice” value (A375 melanoma tumor [4]; i.p., after 6 days, one set of mice) was “slowed tumor growth”, the “tumor growth, second subgroup of mice” value (A375 melanoma tumor [4]; i.p., after 6 days, other set of mice) was “caused the tumors to regress; also recorded: the tumors shrank and displayed complete growth arrest” and the “tumor size versus day 1” value (A375 melanoma tumor [4]; i.p., first 6 days) was “did not differ significantly from their size at day 1”. The “growth rate (final size minus initial size) compared to controls” value (A375 melanoma tumor [5]; 9 days, intra-tumor injection) was 6 times slower, the mean tumor volume (A375 melanoma tumor [5]; after 9 days of daily intra-tumor injection, control 376 mm^3, 26 mm^3 at the outset) was 84 mm^3 and the tumor growth (A375 melanoma tumor [5]; intra-tumor injection daily for 9 days) was “inhibits melanoma tumor growth”. For the same compound, the “tumor weight (mean)” value (A375 melanoma tumor [5]; intra-tumor injection, control 446 mg, p<0.005) was 93 mg, the tolerability [6] was “can be well tolerated” and the “number of viable cells” value (kidney 293 cells [7]) was “not kidney cells; also recorded: is not reduced”. For the same compound, the morphological changes (kidney 293 cells [8]) was “does not result in any of these morphological changes”, the viability [1, 9] was “almost complete loss of viability” and the “sensitivity among the cell lines” value ([1]; RPMI 7951 cells) was “highest degree of sensitivity”. For the same compound, the viability ([1]; SK-MEL 3 cells) was “less affected than the other lines”, the viability ([1]; SK-MEL 24 and SK-MEL 31 cells) was “more affected” and the “number of viable cells” value ([1]; all 7 melanoma lines, 100 μM) was “reduces the number of viable cells; also recorded: very significant loss in the number of viable cells”. For the same compound, the “effect of BQ788 on cells in the presence of S6c” value (A375 cells; A375 cells, ETRB agonist S6c present) was “ineffective”.

In the case of sarafotoxin 6c [S6c], the A375 cell number (A375 cells; S6c alone, 0.1 to 1 μM) is reported as “stimulates cell growth; also recorded: increases A375 cell number” and the “block of the effects of BQ788 on cell number” value (A375 cells; S6c in combination with BQ788, A375 cells) is reported as “can block the inhibitory effects of the ETRB antagonist; also recorded: can completely block the effects of BQ788”.
